Experimental data: US6235771A, “Anilide derivative, production and use thereof” (Takeda Chemical Industries, Ltd., priority 1998, dated 2001)

What was measured:
HIV-1 BA-L = assay: Inhibitory effect on HIV-1 infection to MAGI-CCR5 cell (β-galactosidase activity); assay type: cell-based; conditions: 100 μl of medium containing 1.6 μM Test Compound plus 100 μl of medium containing 300PFU HIV-1 BA-L; MAGI-CCR5 cells; 37° C., 2 days
Method: The plasmid where β-galactosidase gene was ligated downstream of HIV-1 LTR was introduced into CD4 positive HeLa cell, to which human CCR5 was further introduced to obtain transformant MAGI-CCR5. By using said transformant MAGI-CCR5, degree of HIV-1 infection was calculated from β-galactosidase activity (blue color due to decomposition of 5-bromo-4-chloro-3-indolyl-β-D-galactopyranoside). Specifically, MAGI-CCR5 cells were suspended in DMEM medium containing 10% serum to prepare 5×10^4 cells/ml suspension. To each well of 96 well plate was inoculated 200 μl of the suspension, and the cells were cultivated at 37° C. overnight. The medium was removed by means of suction, and to the residue was added 100 μl of the above medium containing 1.6 μM of Test Compound and 100 μl of the above medium containing 300PFU of HIV-1 BA-L cells. The cells were cultivated at 37° C. for 2 days. The medium was removed by means of suction. To the residue was added 200 μl of cell fixative (PBS containing 1% formaldehyde and 0.2% glutaraldehyde), and the mixture was allowed to stand at room temperature for 5 minutes and washed twice with PBS. To the mixture was added 100 μl of staining solution (PBS containing […] and 0.4 mg/ml X-gal), and the mixture was allowed to stand at 37° C. for 50 minutes and washed twice with PBS. The number of blue cells was counted by microscope and defined as the number of cells infected with HIV-1. According to this method, inhibition rate on HIV-1 infection was determined.

human CCR5 = target: T1, human CCR5 (Homo sapiens, UniProt P51681); assay: Inhibition of [125I]-RANTES binding to human CCR5 in CHO/CCR5 cells (CCR5 antagonistic activity); conditions: Test Compound 1 μM, 100 pM [125I]-RANTES, room temperature, 40 minutes, read-out: Inhibition Rate (CCR5 binding)
T1 construct: expressed in transfected cells; host or cells: CHO-K1 cells, electroporated with plasmid pCKR5 (pcDNA3.1 backbone), geneticin-selected (CHO/CCR5)
Method: Cloning of CCR5 gene was carried out by PCR (polymerase chain reaction) from human spleen cDNA. With using 0.5 ng of spleen cDNA (Toyobo, QUICK-Clone cDNA) as template, PCR was performed in DNA Thermal Cycler 480 (Perkin-Elmer) (reaction conditions: 30 cycles of 95° C. for 1 minute, 60° C. for 1 minute, and 75° C. for 5 minutes) by adding primer set, 5'-[…]-3' (25 pmol) and 5'-[…]-3' (25 pmol), which were designed referring to nucleotide sequence of CCR5 gene reported by Samson et al. (Biochemistry, 35(11), 3362-3367 (1996)) and by using TaKaRa EX Taq (TakaraShuzo). The resultant PCR product was subjected to agarose gel. electrophoresis to collect about 1.0 kb DNA fragment, which was subjected to Original TA Cloning Kit (Funakoshi) to carry out cloning of CCR5 gene.
The plasmid obtained in the above (1) was digested with restriction enzymes XbaI (Takara Shuzo) and BamHI (Takara Shuzo) and subjected to agarose gel electrophoresis to collect about 1.0 kb DNA fragment. The DNA fragment was mixed with plasmid pcDNA3.1 (Funakoshi) for expression in animal cells, said plasmid being digested with XbaI and BamHI, and they were ligated with DNA Ligation Kit Ver.2 (Takara Shuzo). The resulting plasmid was subjected to transformation of competent cell of E. coli JM109 (Takara Shuzo) to obtain plasmid pCKR5.
CHO-K1 cells were grown in 750 ml of tissue culture flask (Becton Dickinson) using Ham's F12 medium (Nihon Pharmaceutical) containing 10% fetal calf serum (Life Tech Oriental) and took off with 0.5 g/L trypsin-0.2 g/L EDTA (Life Tech Oriental). The cells were washed with PBS (Life Tech Oriental), centrifuged (1000 rpm, 5 minutes), and suspended in PBS. With using Gene Pulser (Bio-Rad Laboratories), DNA was introduced into the cells under the conditions shown below. That is, to the cuvette of 0.4 cm gap were added 8×10^6 cells and 10 μg of plasmid pCKR5 for expression of human CCR5, and electroporation was carried out under 0.25 kV of voltage and 960 μF of capacitance. The cells were transferred into Ham's F12 medium (Nihon Pharmaceutical) containing 10% fetal calf serum, and cultivated for 24 hours. The cells were again took off and centrifuged, and suspended in Ham's F12 medium (Nihon Pharmaceutical) containing 10% fetal calf serum and 500 μg/ml of geneticin (Life Tech Oriental). The suspension was diluted to give 10^4 cells/ml of the suspension, which was inoculated on 96 well plate (Becton Dickinson) to give geneticin resistant cells. The resulting geneticin resistant cells were cultivated in 96 well plate (Becton Dickinson), and cells expressing CCR5 were selected from the geneticin resistant cells. That is, in assay buffer (Ham's F12 medium containing 0.5% BSA and 20 mM HEPES (Wako Pure Chemical, pH7.2) to which was added 200 pM of [^125 I]-RANTES (Amersham) as ligand, binding reaction was carried out at room temperature for 40 minutes, and the buffer was washed with cooled PBS. To the buffer was added 50 μl/well of 1M NaOH, and the mixture was stirred. Radioactivity was determined with γ-counter to select CHO/CCR5 cells which specifically bind to the ligand.
The CHO/CCR5 were inoculated on 96 well microplate (5×10^4 cells/well) and cultivated for 24 hours. The medium was removed by means of suction, and to each well was added assay buffer containing Test Compound (1 μM) and then 100 pM of [^125 I]-RANTES (Amersham) as ligand. Binding assay was carried out at room temperature for 40 minutes, and assay buffer was removed by means of suction. Each well was washed twice with cooled PBS, and 200 μl of Microscint-20 (Packard Instrument, Inc.) was added to each well. Radio-activity was determined with Top-Count Micro Scintillation Counter (Packard Instrument, Inc.).
According to the method described above, inhibition rate of Test Compound (whose number is referred to in the following Examples) to CCR5 binding.

T1 sequence (P51681 whole entry): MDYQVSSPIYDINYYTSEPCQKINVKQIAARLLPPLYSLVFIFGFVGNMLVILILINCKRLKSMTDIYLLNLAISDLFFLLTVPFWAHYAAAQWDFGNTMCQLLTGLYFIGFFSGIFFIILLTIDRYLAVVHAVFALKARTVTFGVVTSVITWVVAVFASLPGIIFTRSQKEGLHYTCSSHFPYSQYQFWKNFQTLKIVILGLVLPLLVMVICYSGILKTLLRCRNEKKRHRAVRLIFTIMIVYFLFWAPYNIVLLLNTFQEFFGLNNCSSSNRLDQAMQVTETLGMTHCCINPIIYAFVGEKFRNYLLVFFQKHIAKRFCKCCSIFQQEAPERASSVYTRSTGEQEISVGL

inhibition at 1 µM (human CCR5): 100%
SMILES: CCCOc1ccc(-c2ccc3c(c2)C=C(C(=O)Nc2ccc(CN(C)C4CCOCC4)cc2)CCS3(=O)=O)cc1 [Compound 29, N-[4-[N-methyl-N-(tetrahydropyran-4-yl)aminomethyl]phenyl]-7-(4-propoxyphenyl)-1,1-dioxo-2,3-dihydro-1-benzothiepine-4-carboxamide]
Inhibition Rate (HIV-1 infection) (HIV-1 BA-L): 91%
